Source: patent publication US12427188B2, “Pyocyanine demethylases and related phenazine degrading agents compositions, methods and systems for interfering with viability of bacteria” (priority 2020, dated 2025)
Like-named read-outs stand apart in the source and are kept apart here.

B1: PodA: Pyocyanin demethylase of M. fortuitum, SEQ ID NO: 1; in the ABBA experiments the PodA added was PodA10 (protein, listed as Mycobacterium fortuitum)
chain: MTGKTKPAIIGGVAITALAAAGLGVWLFTDGRGGRSTTEPVTMTLDVKNDQVAKHDFGKPGMDVGDMDIFSDILSVDGKQVGYDGGACFFTNVTPDNPMTYCELTIHLDAGEIFARSLTPHTLAPFTMAITGGTGEYANSKGELTVSGVATPDEKYELKLTK

How the values were obtained:
[1] = copper chelating agent; cited from earlier work
[2] = oxidized form; literature values (footnotes a, c, d, e); cited from earlier work
[3] = tested on: PA14; assay: Redox cycling, reduction by and survival support of PA14; format: cell-based, P. aeruginosa
[4] = Redox potential E0' vs. NHE of redox-active compounds; format: physicochemical; conditions: measured in aqueous solution at pH 7 in this study (footnote b)
[5] = tested on: Pseudomonas aeruginosa aggregate biofilms; assay: PodA and tobramycin agar block biofilm assay (ABBA) synergy experiments; format: cell-based; conditions: for peak PI intensity: PodA10 5 μM, tobramycin 50 μg mL^−1
Procedure: Pseudomonas aeruginosa PodA and tobramycin agar block biofilm assay (ABBA) synergy experiments. Starter Pseudomonas aeruginosa cultures were grown 24 h at 37° C. shaking in LB and the OD500 was determined by diluting cells 1:10. For inoculation into agar, cells were first diluted to an OD of 1.0, followed by a 1:10 dilution for a final OD of 0.1. Molten LB agar (1% w/v) or SCFM agar (1% w/v, made by mixing premade 2× SCFM and 2% agar) was incubated at 44° C., after which 10 μL of OD 0.1 culture was added and mixed into 1 mL of agar, for a final starting OD of 0.001. A portion of the mixture (200 μL) was pipetted into a well of an 8-well glass chamber slide for microscopy (Thermo Fisher Scientific #155409) or into a 2 mL Eppendorf tube for cell viability experiments. ABBAs were incubated at 37° C. for 24 h in a Tupperware lined with wet paper towels. Following growth, ABBAs were washed with 200 μL of HEPES (20 mM, pH 7) to rid planktonic cells growing on the surface of the agar. Treatment stocks (100 μL each) were made by diluting PodA10 and/or tobramycin into HEPES (final concentration of 20 mM, pH 7), with the no treatment control consisting of solely HEPES. Final concentrations of PodA (5 μM) and tobramycin (50 ug mL^−1) were calculated accounting for the total volume of the agar+liquid. ABBAs were treated overnight (14 h), treatment mixture was decanted, and agar blocks were washed with HEPES (400 μL).
For microscopy experiments, cells were incubated for 30 min with 125 μL of diluted propidium iodide (final concentration of 490 μM when added to ABBA, taking into account volume of the agar) and SYTO-9 (final concentration of 16 μM), after which 50 μL of a 1:50 dilution of 5-μm fluorescent beads (Spherotech; CFP-5045-2) was added to each agar block. ABBAs were imaged with a Leica TCS SPE confocal microscope as described elsewhere using 512×512-pixel format (29)[44], with the exception of imaging with a 6 μm step-size in the Z-direction.
For cell viability experiments, 300 μL of HEPES (20 mM, pH 7) was pipetted into each Eppendorf ABBA tube and samples were homogenized on speed 3 of a Bio-Gen PRO200 Homogenizer (PRO Scientific). Samples were briefly spun to rid of air bubbles (<1,000×g) and diluted in series and plated as described above in liquid synergy experiments. Experiments were completed with biological triplicates and was repeated thrice, with a representative figure shown.
ABBA microscopy image analysis. Images were analyzed in FIJI by re-slicing the data set in the XZ dimension followed by a max-intensity Z-projection. The brightness/contrast was auto-normalized in FIJI to the sample treated with only tobramycin. These LUT values were then applied to the other images in the corresponding data sets. Average pixel intensities along the Z-dimensions were found using the “Plot Profile” function in FIJI.
To determine mean pixel intensity and aggregate volume of each ABBA, channels 1 (SYTO-9) and 2 (Propidium Iodide) were combined into a single channel using FIJI. Images were analyzed in Imaris and aggregate masks were created using the “surface” module of the software. Using the surface Imaris wizard, all options under algorithm settings were unchecked. For surface channel settings, channel 3 (representing combined channels) was chosen and default settings were maintained. For threshold settings, the no treatment ABBA sample was analyzed for proper data inclusion and a value of 60 was used for all LB samples, with a threshold value of 40 for all SCFM samples. Lastly, data were excluded 0.1 μm from the XY edges, to exclude aggregates that were cut off due to imaging field. Data were not excluded from the top edge of the ABBA, as images were collected from the surface of the agar using fluorescent beads as described above. Exported statistics were used to plot aggregate volume or mean PI intensity against position of aggregates in the Z-dimension. […]

Row | Molecule | E^0, (vs. NHE) (mV) [2] | Reduction by PA14? [3] | Support survival? [3] | # of Redox cycles over 7 days [3] | other results
1 | Oc1cccc2nc3ccccc3nc12 [1-Hydroxyphenazine (1-OHPHZ), 1-Hydroxyphenazine] | −174 ^a mV | Yes | Yes | 14 | log of the equilibrium constant βmlh of binding copper [1]: 8.68
2 | O=C1c2ccc(S(=O)(=O)O)cc2C(=O)c2ccc(S(=O)(=O)O)cc21 [2,6-AQDS] | −184 ^d mV | Yes (very slowly) | No | No cycle | 
3 | O=C(O)Cc1cc(O)ccc1O [Homogentisic acid (HMA), Homogentisic acid] |  |  | No | No cycle | E^0, (vs. NHE) (mV) [4]: +306^b mV
4 | CN(C)c1ccc2nc3ccc(=[N+](C)C)cc-3sc2c1 [Methylene blue (MB), Methylene blue] | +11 mV | Yes | No | 3 | E^0, (vs. NHE) (mV) [4]: 0 mV
5 | C[n+]1ccc(-c2cc[n+](C)cc2)cc1 [Paraquat] | −446^e mV | No | No | No cycle | 
6 | O=C(O)c1cccc2nc3ccccc3nc12 [Phenazine-1-carboxylate (PCA), Phenazine-1-carboxylate] | −114 ^a mV | Yes | Yes | 22 | 
7 | C[n+]1c2ccccc2nc2c([O-])cccc21 [Pyocyanin (PYO), Pyocyanin] | −40^a mV | Yes | Yes | 31 | 
8 | NC[C@H]1O[C@H](O[C@H]2[C@H](O)[C@@H](O[C@H]3O[C@H](CO)[C@@H](O)[C@H](N)[C@H]3O)[C@H](N)C[C@@H]2N)[C@H](N)C[C@@H]1O [tobramycin] |  |  |  |  | PI staining versus non-treated samples ([5]; LB ABBA, hypoxia/anoxia from around 300 μm): no significant differences; peak PI intensity ([5]; LB): 151.0 AUs; PI staining versus no treatment controls ([5]; SCFM ABBA, all depths): considerably higher than no treatment controls at all depths; peak PI intensity ([5]; SCFM): 22.6 AUs
9 | B1 |  |  |  |  | outside ring PI staining pattern of aggregates ([5]; LB, XY-plane, versus untreated aggregates): abolished; PI staining at depth ([5]; PodA alone, >300 μm in LB (anoxic zone)): did not significantly change
